Holding throughout (assay type): biochemical
Experiment [1] concerns the target T1, human JAK2 (a.a. 828-1132) (Homo sapiens, UniProt O60674).
T1 construct: JAK2 (a.a. 828-1132); His tag (N); made in house; host or cells: insect cells (baculovirus)
The experiment is described as follows: In vitro JAK kinase assay (HTRF, phosphorylation of a biotinylated peptide), JAK2. The gist of the method:
(§1)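 Phosphorylation of a biotinylated peptide by the JAK kinase domain, detected by HTRF with Eu-Py20 and SA-APC. ATP was 90 μM for JAK1, 30 μM for JAK2 and 3 μM for JAK3. Reactions ran 1 h at room temperature and were stopped with EDTA, followed by 40 min antibody binding.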
In general terms: Time-resolved FRET reads energy transfer from a long-lived donor to a nearby acceptor.

For experiment [2], the target named is T2, Recombinant Human Anaplastic Lymphoma Kinase (Homo sapiens, UniProt Q9UM73).
T2 construct: purchased Invitrogen, Carlsbad, Calif
Nature of the experiment: ALK HTRF kinase assay. A digest of the protocol:
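Recombinant human ALK with biotinylated peptide substrate; phosphorylation detected by HTRF using Eu-labelled anti-phosphotyrosine antibody and streptavidin-allophycocyanin. IC50 from a sigmoidal fit with Hill slope.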

In experiment [3] the target is T3, human JAK3 (a.a. 781-1124) (Homo sapiens, UniProt P52333).
T3 construct: JAK3 (a.a. 781-1124); His tag (N); made in house; host or cells: insect cells (baculovirus)
The experiment is described as follows: In vitro JAK kinase assay (HTRF, phosphorylation of a biotinylated peptide), JAK3. The gist of the method:
as §1

The target of experiment [4] is T4, human JAK1 (a.a. 837-1142) (Homo sapiens, UniProt P23458).
T4 construct: human JAK1 (a.a. 837-1142); His tag (N); made in house; host or cells: insect cells (baculovirus)
The experiment is described as follows: In vitro JAK kinase assay (HTRF, phosphorylation of a biotinylated peptide), JAK1. The following applies: read-out: JAK1 IC50. The gist of the method:
as §1

In experiment [5] the target is TYK2 (Homo sapiens, UniProt P29597). Nature of the experiment: TYK2 kinase inhibition (Table A1).
Where [6] appears, read: compound at a concentration of 500 nM or 1 mM (not specified), cells shown as percentage.
The mark [7] stands for this setting: method AA1 (30 μM ATP) or AA2 (1000 μM ATP), not stated per value.
Where [8] appears, read: compound at 500 nM or 1 mM, 90 μM ATP.
Where [9] appears, read: method AA1 (3 μM ATP) or AA2 (1000 μM ATP), not stated per value.
[10] abbreviates: method AA1 (90 μM ATP) or AA2 (1000 μM ATP), not stated per value.

Structures can show the parent of a compound that is named as a salt. Where two headings read alike, the source gives them in different places.

T4 sequence (P23458 849-1154): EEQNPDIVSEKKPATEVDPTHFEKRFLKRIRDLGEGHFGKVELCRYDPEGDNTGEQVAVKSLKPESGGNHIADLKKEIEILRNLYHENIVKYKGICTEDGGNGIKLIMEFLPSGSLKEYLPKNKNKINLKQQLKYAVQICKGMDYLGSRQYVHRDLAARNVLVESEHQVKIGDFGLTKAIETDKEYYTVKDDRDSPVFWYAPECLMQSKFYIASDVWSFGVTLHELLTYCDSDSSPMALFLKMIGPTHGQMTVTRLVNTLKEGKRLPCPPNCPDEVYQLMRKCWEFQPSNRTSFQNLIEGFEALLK
T1 sequence (O60674 828-1132): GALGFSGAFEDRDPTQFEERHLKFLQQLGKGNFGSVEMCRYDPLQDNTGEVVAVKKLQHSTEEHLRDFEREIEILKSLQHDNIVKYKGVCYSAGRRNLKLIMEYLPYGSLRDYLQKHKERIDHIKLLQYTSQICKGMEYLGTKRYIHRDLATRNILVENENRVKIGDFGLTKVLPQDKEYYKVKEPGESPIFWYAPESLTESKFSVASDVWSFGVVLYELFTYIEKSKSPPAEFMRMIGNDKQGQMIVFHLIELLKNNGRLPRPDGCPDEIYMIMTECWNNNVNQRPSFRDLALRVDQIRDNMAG
T2 sequence (Q9UM73 19-1620): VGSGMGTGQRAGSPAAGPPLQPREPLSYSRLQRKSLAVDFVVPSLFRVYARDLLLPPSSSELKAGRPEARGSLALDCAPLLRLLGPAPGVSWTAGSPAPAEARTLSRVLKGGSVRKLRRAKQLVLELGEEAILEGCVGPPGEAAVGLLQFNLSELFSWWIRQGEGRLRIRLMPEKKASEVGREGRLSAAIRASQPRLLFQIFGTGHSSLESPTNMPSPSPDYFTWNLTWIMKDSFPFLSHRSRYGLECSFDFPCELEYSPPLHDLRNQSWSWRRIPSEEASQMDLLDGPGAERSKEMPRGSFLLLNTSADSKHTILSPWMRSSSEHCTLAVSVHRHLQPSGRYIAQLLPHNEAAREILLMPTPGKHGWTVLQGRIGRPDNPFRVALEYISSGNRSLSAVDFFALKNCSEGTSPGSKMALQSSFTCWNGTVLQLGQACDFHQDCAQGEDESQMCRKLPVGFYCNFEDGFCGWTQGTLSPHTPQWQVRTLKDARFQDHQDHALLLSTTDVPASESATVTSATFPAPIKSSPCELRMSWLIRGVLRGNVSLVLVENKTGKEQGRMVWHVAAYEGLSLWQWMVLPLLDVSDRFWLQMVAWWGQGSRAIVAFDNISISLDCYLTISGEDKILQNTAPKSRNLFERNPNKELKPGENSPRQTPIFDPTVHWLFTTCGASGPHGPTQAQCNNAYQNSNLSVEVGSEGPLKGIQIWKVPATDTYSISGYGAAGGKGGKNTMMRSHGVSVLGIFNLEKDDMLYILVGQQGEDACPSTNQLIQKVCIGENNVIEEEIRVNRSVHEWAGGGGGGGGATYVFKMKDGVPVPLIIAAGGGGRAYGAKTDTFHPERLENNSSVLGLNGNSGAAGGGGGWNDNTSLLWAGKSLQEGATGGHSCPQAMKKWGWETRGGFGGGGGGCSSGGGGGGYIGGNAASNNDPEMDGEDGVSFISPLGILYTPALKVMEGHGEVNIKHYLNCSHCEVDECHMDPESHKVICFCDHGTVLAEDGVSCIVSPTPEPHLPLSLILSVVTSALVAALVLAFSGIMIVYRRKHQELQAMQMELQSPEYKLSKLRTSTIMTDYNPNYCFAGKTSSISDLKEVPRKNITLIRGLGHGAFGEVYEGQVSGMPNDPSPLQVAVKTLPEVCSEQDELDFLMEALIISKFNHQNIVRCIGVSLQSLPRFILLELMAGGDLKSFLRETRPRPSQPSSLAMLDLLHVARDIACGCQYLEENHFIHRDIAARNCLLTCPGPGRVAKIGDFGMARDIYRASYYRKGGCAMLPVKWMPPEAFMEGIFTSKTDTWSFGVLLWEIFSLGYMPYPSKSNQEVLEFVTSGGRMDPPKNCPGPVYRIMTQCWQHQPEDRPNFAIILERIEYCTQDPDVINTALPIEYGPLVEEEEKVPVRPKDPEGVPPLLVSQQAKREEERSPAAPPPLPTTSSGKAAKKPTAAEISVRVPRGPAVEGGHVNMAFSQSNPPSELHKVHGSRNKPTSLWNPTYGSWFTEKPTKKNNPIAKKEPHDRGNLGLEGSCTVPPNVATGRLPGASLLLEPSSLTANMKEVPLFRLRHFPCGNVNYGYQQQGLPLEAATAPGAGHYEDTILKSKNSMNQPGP
T3 sequence (P52333 781-1124): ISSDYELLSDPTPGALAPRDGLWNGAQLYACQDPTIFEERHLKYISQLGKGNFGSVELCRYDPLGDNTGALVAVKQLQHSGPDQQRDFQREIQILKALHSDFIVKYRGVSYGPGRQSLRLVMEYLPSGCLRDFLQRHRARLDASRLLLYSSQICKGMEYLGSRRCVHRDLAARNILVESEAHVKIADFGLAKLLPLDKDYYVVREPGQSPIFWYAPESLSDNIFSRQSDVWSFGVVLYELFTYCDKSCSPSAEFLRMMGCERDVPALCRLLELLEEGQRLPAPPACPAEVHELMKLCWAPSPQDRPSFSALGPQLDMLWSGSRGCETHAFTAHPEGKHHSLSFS
TYK2, sequence (P29597 whole entry): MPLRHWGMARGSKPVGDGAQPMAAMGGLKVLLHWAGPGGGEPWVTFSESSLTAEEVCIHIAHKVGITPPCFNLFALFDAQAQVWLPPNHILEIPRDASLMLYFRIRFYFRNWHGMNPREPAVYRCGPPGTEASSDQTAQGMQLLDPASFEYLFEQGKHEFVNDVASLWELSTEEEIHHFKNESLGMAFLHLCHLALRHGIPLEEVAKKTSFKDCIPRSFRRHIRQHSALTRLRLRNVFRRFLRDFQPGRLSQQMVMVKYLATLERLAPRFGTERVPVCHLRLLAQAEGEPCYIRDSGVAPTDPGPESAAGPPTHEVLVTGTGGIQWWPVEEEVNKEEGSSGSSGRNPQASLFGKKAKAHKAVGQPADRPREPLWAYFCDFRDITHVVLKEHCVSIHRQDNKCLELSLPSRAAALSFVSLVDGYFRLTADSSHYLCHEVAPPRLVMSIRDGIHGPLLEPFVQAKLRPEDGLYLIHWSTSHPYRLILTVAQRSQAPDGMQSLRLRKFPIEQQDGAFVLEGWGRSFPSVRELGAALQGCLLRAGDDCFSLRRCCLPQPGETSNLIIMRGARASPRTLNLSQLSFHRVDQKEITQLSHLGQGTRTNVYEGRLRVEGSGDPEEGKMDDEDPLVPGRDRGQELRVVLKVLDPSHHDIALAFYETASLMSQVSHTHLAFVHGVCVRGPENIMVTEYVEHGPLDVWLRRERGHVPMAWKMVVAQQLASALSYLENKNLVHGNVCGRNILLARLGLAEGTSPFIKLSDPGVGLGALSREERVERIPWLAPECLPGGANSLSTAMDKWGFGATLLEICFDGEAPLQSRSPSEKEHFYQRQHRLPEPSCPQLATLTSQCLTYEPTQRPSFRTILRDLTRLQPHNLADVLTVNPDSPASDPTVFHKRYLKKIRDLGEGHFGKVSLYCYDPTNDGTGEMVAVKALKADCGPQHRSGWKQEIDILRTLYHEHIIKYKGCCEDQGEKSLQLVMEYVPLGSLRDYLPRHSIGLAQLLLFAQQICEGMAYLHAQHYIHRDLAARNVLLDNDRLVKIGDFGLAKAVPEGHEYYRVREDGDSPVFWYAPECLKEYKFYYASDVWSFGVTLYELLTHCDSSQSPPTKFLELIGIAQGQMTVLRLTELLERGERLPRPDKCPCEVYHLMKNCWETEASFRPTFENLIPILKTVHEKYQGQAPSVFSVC

As to `CC(C)C(=O)N1CC[C@H](NC(=O)Nc2ccc3cc2CCc2cccc(c2)Nc2ncc(Cl)c(n2)N3)C1` [Example B229, N-[6-Chloro-2,4,8,22-tetraazatetracyclo[14.3.1.1(3,7).1(9,13)]docosa-1(20),3(22),4,6,9(21),10,12,16,18-nonaen-12-yl]-N′-[(3S)-1-isobutyrylpyrrolidin-3-yl]urea trifluoroacetate], the IC50 (in general, the point on the concentration scale where inhibition reaches its midpoint) is 17 nM in experiment [1] (Table B1), 76 nM in experiment [3] (Table B1), 9 nM in experiment [4] (Table B1) and 19 nM in experiment [5] (Table B1). Further, the “ALK % of inhibition at a concentration of 500 nM or 1 mM” value (“ALK % of inhibition” for short) in experiment [2] (setting [6]) is on record as 6.5%.

For the compound `O=C(NCCO)Nc1ccc2cc1CCc1cccc(c1)Nc1ncc(Cl)c(n1)N2` [Example B241, N-[6-Chloro-2,4,8,22-tetraazatetracyclo[14.3.1.1(3,7).1(9,13)]docosa-1(20),3(22),4,6,9(21),10,12,16,18-nonaen-12-yl]-N′-(2-hydroxyethyl)urea trifluoroacetate], the IC50 was 1.5 nM in experiment [1] (Table B1), 10 nM in experiment [3] (Table B1), 1.1 nM in experiment [4] (Table B1) and 3.5 nM in experiment [5] (Table B1). Further, in experiment [2] (setting [6]), the “ALK % of inhibition” value came out at 22%.

Take `O=C(COc1ccc2cc1CCc1cccc(c1)Nc1ncc(Cl)c(n1)N2)Nc1ccccc1` [Example A18, 2-{[6-Chloro-2,4,8,22-tetraazatetracyclo[14.3.1.1(3,7).1(9,13)]docosa-1(20),3(22),4,6,9(21),10,12,16,18-nonaen-12-yl]oxy}-N-phenylacetamide trifluoroacetate]: the IC50 worked out at 3.3 nM in experiment [1] (setting [7]), 23 nM in experiment [3] (setting [9]), 4.5 nM in experiment [4] (setting [10]) and 11 nM in experiment [5]. The “ALK % of inhibition” value in experiment [2] (setting [8]) amounted to 59%.

`O=C(Nc1ccc2cc1CCc1cncc(c1)Nc1ncc(Cl)c(n1)N2)N1CCN(c2ccncc2)CC1` [Example B293, N-[6-Chloro-2,4,8,18,22-pentaazatetracyclo[14.3.1.1(3,7).1(9,13)]docosa-1(20),3(22),4,6,9(21),10,12,16,18-nonaen-12-yl]-4-pyridin-4-ylpiperazine-1-carboxamide tetrakis(trifluoroacetate)]: the concentration for half-maximal inhibition (IC50) in experiment [1] (Table B1) was above 200 nM; in experiment [3] (Table B1) it was above 200 nM; in experiment [4] (Table B1), 60 nM; in experiment [5] (Table B1) it was 150 nM. For the same compound, the “ALK % of inhibition” value in experiment [2] (setting [6]) was found to be 45%.

Regarding `O=C(CC1CCN(c2nc3ccccc3s2)CC1)Nc1ccc2cc1CCc1cncc(c1)Nc1ncc(Cl)c(n1)N2` [Example A157, 2-[1-(1,3-Benzothiazol-2-yl)piperidin-4-yl]-N-[6-chloro-2,4,8,18,22-pentaazatetracyclo[14.3.1.1(3,7).1(9,13)]docosa-1(20),3(22),4,6,9(21),10,12,16,18-nonaen-12-yl]acetamide tris(trifluoroacetate)], the IC50 in experiment [1] (setting [7]) is 102 nM; in experiment [3] (setting [9]), above 10000 nM; in experiment [4] (setting [10]) it was 2.6 nM; in experiment [5] it was 617 nM. Also, the “ALK % of inhibition” value in experiment [2] (setting [8]) is recorded as 15%.

Take `N#Cc1ccc(S(=O)(=O)Nc2ccc3cc2CCc2cccc(c2)Nc2ncc(Cl)c(n2)N3)cc1` [Example B154, N-[6-Chloro-2,4,8,22-tetraazatetracyclo[14.3.1.1(3,7).1(9,13)]docosa-1(20), 3(22),4,6,9(21),10,12,16,18-nonaen-12-yl]-4-cyanobenzenesulfonamide trifluoroacetate]: the IC50 in experiment [1] (Table B1) stood at 0.1 nM; in experiment [2] (Table B1, cells without percent sign), 280 nM; in experiment [3] (Table B1), 5.3 nM; in experiment [4] (Table B1), 0.6 nM; in experiment [5] (Table B1), 0.83 nM.

In the case of `O=C(c1cc2cc(c1)OCCSc1cccc(c1)Nc1nc(ncc1Cl)N2)N1CCOCC1` [Example D52, trifluoroacetate], the IC50 in experiment [1] (Table D1) is 1.2 nM; in experiment [2] (Table D1, 90 μM ATP) it was 420 nM; in experiment [3] (Table D1), 13 nM; in experiment [4] (Table D1), 1.5 nM; in experiment [5] (Table D1), 4.4 nM.

Turning to `O=C(Nc1ccc2cc1CCc1cncc(c1)Nc1ncc(Cl)c(n1)N2)N1CCN(c2ccccc2)CC1` [Example B292, N-[6-Chloro-2,4,8,18,22-pentaazatetracyclo[14.3.1.1(3,7).1(9,13)]docosa-1(20),3(22),4,6,9(21),10,12,16,18-nonaen-12-yl]-4-phenylpiperazine-1-carboxamide tris(trifluoroacetate)], the IC50 in experiment [1] (Table B1) is above 200 nM; in experiment [3] (Table B1), above 200 nM; in experiment [4] (Table B1), 32 nM; in experiment [5] (Table B1), 100 nM. Moreover, the “ALK % of inhibition” value in experiment [2] (setting [6]) is given as 68%.

With `Oc1cc2cc(c1)Nc1nc(ncc1Cl)Nc1cccc(c1)CC2` [Example A22, 6-Chloro-2,4,8,22-tetraazatetracyclo[14.3.1.1(3,7).1(9,13)]docosa-1(20),3(22),4,6,9(21),10,12,16,18-nonaen-11-ol trifluoroacetate], the IC50 was 6.2 nM in experiment [1] (setting [7]), 10 nM in experiment [3] (setting [9]), 11 nM in experiment [4] (setting [10]) and 22 nM in experiment [5]. In experiment [2] (setting [8]), the “ALK % of inhibition” value is given as 54%.

For `O=C(Nc1ccc2cc1CCc1cccc(c1)Nc1ncc(Cl)c(n1)N2)N[C@H]1CCN(C(=O)c2ccncc2)C1` [Example B234, N-[6-Chloro-2,4,8,22-tetraazatetracyclo[14.3.1.1(3,7).1(9,13)]docosa-1(20),3(22),4,6,9(21),10,12,16,18-nonaen-12-yl]-N′-[(3S)-1-isonicotinoylpyrrolidin-3-yl]urea bis(trifluoroacetate)], the IC50 was 6.5 nM in experiment [1] (Table B1), 40 nM in experiment [3] (Table B1), 4 nM in experiment [4] (Table B1) and 11 nM in experiment [5] (Table B1). In addition, in experiment [2] (setting [6]), the “ALK % of inhibition” value is 31%.

In the case of `Clc1cnc2nc1Nc1cccc(c1)CCNc1cccc(c1)N2` [Example D78, 6-Chloro-2,4,8,16,23-pentaazatetracyclo[15.3.1.1(3,7).1(9,13)]tricosa-1(21), 3(23),4,6,9(22),10,12,17,19-nonaene bis(trifluoroacetate)], the IC50 in experiment [1] (Table D1) is 10 nM; in experiment [2] (Table D1, 90 μM ATP) it was 791 nM; in experiment [3] (Table D1), 30 nM; in experiment [4] (Table D1) it was 30 nM; in experiment [5] (Table D1) it was 19 nM.

Take `O=C(CC1CCN(c2ncc(F)cn2)CC1)Nc1ccc2cc1CCc1cncc(c1)Nc1ncc(Cl)c(n1)N2` [Example A169, N-[6-Chloro-2,4,8,18,22-pentaazatetracyclo[14.3.1.1(3,7).1(9,13)]docosa-1(20),3(22),4,6,9(21),10,12,16,18-nonaen-12-yl]-2-[1-(5-fluoropyrimidin-2-yl)piperidin-4-yl]acetamide tris(trifluoroacetate)]: the half-maximal inhibitory concentration (IC50) is 131 nM in experiment [1] (setting [7]), above 1000 nM in experiment [3] (setting [9]), 26 nM in experiment [4] (setting [10]) and 319 nM in experiment [5]. Besides, the “ALK % of inhibition” value in experiment [2] (setting [8]) stood at 23%.

Turning to `CC(C)(C)OC(=O)N1CC[C@@H](NCc2ccc3cc2CCc2cccc(c2)Nc2ncc(Cl)c(n2)N3)C1` [Example B219, tert-Butyl (3R)-3-({[6-chloro-2,4,8,22-tetraazatetracyclo[14.3.1.1(3,7).1(9,13)]docosa-1(20),3(22),4,6,9(21),10,12,16,18-nonaen-12-yl]methyl}amino)pyrrolidine-1-carboxylate bis(trifluoroacetate)], the IC50 in experiment [1] (Table B1) is 16 nM; in experiment [3] (Table B1), 29 nM; in experiment [4] (Table B1), 6.6 nM; in experiment [5] (Table B1), 29 nM. Further, in experiment [2] (setting [6]), the “ALK % of inhibition” value is 26%.

Regarding `Cn1cc(C(=O)N2CC[C@H](NC(=O)Nc3ccc4cc3CCc3cncc(c3)Nc3ncc(Cl)c(n3)N4)C2)cn1` [Example B269, N-[6-Chloro-2,4,8,18,22-pentaazatetracyclo[14.3.1.1(3,7).1(9,13)]docosa-1(20),3(22),4,6,9(21),10,12,16,18-nonaen-12-yl]-N′-{(3S)-1-[(1-methyl-1H-pyrazol-4-yl)carbonyl]pyrrolidin-3-yl}urea bis(trifluoroacetate)], the IC50 in experiment [1] (Table B1) was 409 nM; in experiment [3] (Table B1), above 10000 nM; in experiment [4] (Table B1) it was 13 nM; in experiment [5] (Table B1), 727 nM. Also, the “ALK % of inhibition” value in experiment [2] (setting [6]) was 10%.

On to `O=C(CC1CCNCC1)Nc1ccc2cc1CCc1cncc(c1)Nc1ncc(Cl)c(n1)N2` [Example A71, N-[6-Chloro-2,4,8,18,22-pentaazatetracyclo[14.3.1.1(3,7).1(9,13)]docosa-1(20),3(22),4,6,9(21),10,12,16,18-nonaen-12-yl]-2-piperidin-4-ylacetamide tris(trifluoroacetate)], for which the IC50 in experiment [1] (setting [7]) was determined as 69 nM; in experiment [3] (setting [9]), 112 nM; in experiment [4] (setting [10]), 19 nM; in experiment [5], 57 nM. In addition, the “ALK % of inhibition” value in experiment [2] (setting [8]) is 26%.

The values are drawn from patent publication US8871753B2, “Macrocyclic compounds and their use as kinase inhibitors” (Incyte Corporation, priority 2008, dated 2014).
